Results taken from BindingDB's records for doi:10.7270/Q2GH9GBT (Nmmlsc, 2008).

target: T1, Bcl-2-like protein 10 [11-204] (Homo sapiens, UniProt Q9HD36); test: regulators of Bim-Bcl-B binding, dose response, biochemical, multiplexed, bead-based flow cytometry, human (AID 1327); settings: not given
T1 construct: 11-204
T1 sequence (Q9HD36 whole entry): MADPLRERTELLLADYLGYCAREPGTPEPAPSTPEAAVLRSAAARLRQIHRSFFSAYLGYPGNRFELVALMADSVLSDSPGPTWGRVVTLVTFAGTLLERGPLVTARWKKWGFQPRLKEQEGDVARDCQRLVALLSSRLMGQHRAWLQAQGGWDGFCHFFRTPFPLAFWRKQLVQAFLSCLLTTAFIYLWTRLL

EC50 [µM]	Compound
9.23	Cc1ccc(C=NNC(=O)CSc2nnc(-c3ccc(Cl)cc3)n2-c2ccccc2)o1 [SMR000218122]
35.7	Clc1nc2ccccc2cc1CN=Nc1nc2ccccc2[nH]1 [SMR000221568]

same assay, conditions: inactive by the depositor's call

EC50 [µM]	Compound
16.4	COc1ccc(OC)c(-n2c(=O)c3ccccc3c3ccccc3c2=O)c1 [SMR000236434]
13.7	Nc1c(C(=O)NCC2CCCO2)sc2nc3c(c(-c4ccco4)c12)CC/C3=C\c1ccco1 (centres undefined) [SMR000259502]
10.4	Nc1c(C(=O)NC2CC2)sc2nc3c(c(-c4ccco4)c12)CC/C3=C/c1ccco1 [SMR000259554]
3.53	Cc1nnc2ccc(-c3cccc(NC(=O)c4ccco4)c3)nn12 [SMR000324305]
1.11	O=C(Nc1cccc(Cl)c1)Nc1ccnc(-c2cccnc2)n1 [SMR000337179]
11.2	CCOC(=O)c1nc(Nc2ccc(C(=O)OC)cc2)c2ccccc2n1 [ethyl 4-(4-methoxycarbonylanilino)quinazoline-2-carboxylate]
1.82	CN(N=Cc1ccncc1)C1=NS(=O)(=O)c2ccccc21 [isonicotinaldehyde (1,1-dioxido-1,2-benzisothiazol-3-yl)(methyl)hydrazone]
